Laboratory results: patent US8163767B2, “Heterocyclic Janus Kinase 3 inhibitors” (Astellas Pharma Inc., priority 2005, dated 2012)

These molecules were tested against T1, human JAK3 (Homo sapiens, UniProt P52333) (assay: Determination of Janus Kinase 3 (JAK3) inhibitory activity). Conditions: test compound 10^−8M; read-out: IR (JAK3 inhibition rate).
T1 construct: His (N); purchased Carna Bioscience Inc. (Kobe, Japan); host or cells: baculovirus expression system
Type: biochemical
Protocol: Test 1: Determination of Janus Kinase 3 (JAK3) Inhibitory Activity
The assay for JAK3 activity was performed basically according to the method as proposed by Okimoto et al, as follows.
Purified kinase domain (KD) of human JAK3 was purchased from Carna Bioscience Inc. (Kobe, Japan). 796-1124 (end) amino acids of human JAK3 [accession number #NM_000215] was expressed as N-terminal His-tagged protein (41 kDa) using the baculovirus expression system and purified by using Ni-NTA affinity chromatography.
Biotin-Lyn-Substrate-peptide and ATP were used as substrates. Assay buffer consisted of 15 mM Tris-HCl pH7.5, 0.01% Tween 20 and 2 mM DTT. For the standard assay, 20 μL of substrate solution (Assay buffer containing 627 nM Biotin-Lyn-Substrate-2, 20 μM ATP and 25 mM MgCl2), 10 μL of assay buffer containing test compound and 20 μL of enzyme solution were added to the plate and mixed well.
After 1 hour incubation at ambient temperature, the plate was washed 4 times with wash buffer (50 mM Tris-HCl pH 7.5, 150 mM NaCl, 0.02% Tween 20), and then blocking buffer (wash buffer containing 0.1% Bovine serum albumin) was added to the plate. After 30 minutes incubation at ambient temperature, blocking buffer was removed and HRP-PY-20 solution (HRP-PY-20 500 times diluted with blocking buffer) was added. After 30 minutes incubation at ambient temperature, the plate was washed 4 times and TMB substrate solution (Sigma) was added to the plate. After 4 minutes incubation at ambient temperature, 1 M H2SO4 was added to the plate to stop the reaction. Enzyme activity was measured as optical density at 450 nm.

T1 sequence (P52333 796-1124): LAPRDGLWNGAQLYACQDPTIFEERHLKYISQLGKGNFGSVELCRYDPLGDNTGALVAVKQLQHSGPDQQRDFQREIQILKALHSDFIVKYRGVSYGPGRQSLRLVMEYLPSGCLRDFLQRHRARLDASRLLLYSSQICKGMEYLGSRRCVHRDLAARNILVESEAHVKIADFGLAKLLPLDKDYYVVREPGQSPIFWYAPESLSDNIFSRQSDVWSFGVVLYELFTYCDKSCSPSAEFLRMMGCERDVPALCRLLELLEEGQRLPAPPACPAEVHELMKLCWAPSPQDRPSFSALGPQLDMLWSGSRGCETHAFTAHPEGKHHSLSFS

| inhibition at 0.01 µM | Structure (SMILES) |
| --- | --- |
| > 50% | CC1CCN(c2ncc(C#N)s2)CC1n1c(=O)[nH]c2cnc3[nH]ccc3c21 (stereo not shown) [Example 242, 2-[4-Methyl-3-(2-oxo-3,6-dihydroimidazo[4,5-d]pyrrolo[2,3-b]-pyridin-1(2H)-yl)-1-piperidinyl]-thiazole-5-carbonitrile] |
| > 50% | CC1CCN(c2ccc(C#N)nn2)CC1n1c(=O)[nH]c2cnc3[nH]ccc3c21 (stereo not shown) [Example 244, 6-[4-Methyl-3-(2-oxo-3,6-dihydroimidazo[4,5-d]pyrrolo[2,3-b]-pyridin-1(2H)-yl)-1-piperidinyl]-3-pyridazinecarbonitrile] |
| > 50% | CC1CCN(C(=O)N(C)C)CC1n1c(=O)[nH]c2cnc3[nH]ccc3c21 (stereo not shown) [Example 275, N,N,4-Trimethyl-3-(2-oxo-3,6-dihydroimidazo[4,5-d]pyrrolo-[2,3-b]pyridin-1(2H)-yl)-1-piperidine carboxamide] |
| > 50% | CC1CCN(C(=O)N2CC(C#N)C2)CC1n1c(=O)[nH]c2cnc3[nH]ccc3c21 (stereo not shown) [Example 280, 1-{[4-Methyl-3-(2-oxo-3,6-dihydroimidazo[4,5-d]pyrrolo[2,3-b]-pyridin-1(2H)-yl)-1-piperidinyl]carbonyl}-3-azetidinecarbonitrile] |
| > 50% | CC1CCN(C(=O)N(C)CC#N)CC1n1c(=O)[nH]c2cnc3[nH]ccc3c21 (stereo not shown) [Example 284, N-(Cyanomethyl)-N,4-dimethyl-3-(2-oxo-3,6-dihydroimidazo-[4,5-d]pyrrolo[2,3-b]pyridin-1(2H)-yl)-1-piperidinecarboxamide] |
| > 50% | N#Cc1ccc(N2CCC(Nc3c(C(N)=O)cnc4[nH]cnc34)CC2)nc1 [Example 322, 7-{[1-(5-cyano-2-pyridinyl)-4-piperidinyl]amino}-3H-imidazo[4,5-b]pyridine-6-carboxamide] |
| > 50% | C[C@@H]1CCCC[C@@H]1n1c(=O)[nH]c2cnc3[nH]cc(Br)c3c21 [Example 324, 8-bromo-1-[(1S,2R)-2-methylcyclohexyl]-3,6-dihydroimidazo[4,5-d]pyrrolo[2,3-b]pyridin-2(1H)-one] |
